Source: patent US10815197B2, “N-sulfonyl benzamides as voltage-gated sodium channel inhibitors” (SHANGHAI HAIYAN PHARMACEUTICAL TECHNOLOGY CO., LTD., priority 2016, dated 2020)

How the values were obtained:
hNav1.7 = biological target: T1, hNav1.7 (Homo sapiens, UniProt Q15858); assay: Manual patch clamp experiment hNav1.7 (CHO-hNav1.7 stable cell line); type: cell-based; settings: for inhibition at 0.1 µM: compound at 100 nM, read-out: Inhibition of Nav1.7 100 nM(%); for inhibition at 1 µM: compound at 1000 nM, read-out: Inhibition of Nav1.7 1000 nM(%)
T1 construct: host or cells: CHO
Procedure, shortened: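 Whole-cell manual patch clamp on CHO-hNav1.7 or HEK-hNav1.5 cells, extracellular pH 7.3, CsF-based internal. Sodium current elicited by 20 ms steps to −10 mV from either V1/2 holding (with 50 ms −120 mV prepulse) or −120 mV holding, every 10 s; inhibition from current before versus after dosing, IC50 by Hill fit.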

[1] = Metabolism stability assay, human liver microsomes; type: in vitro ADME; settings: for half-life at 1 µM: pH 7.4
Procedure: Assay 4: Metabolism Stability Assay 1. […] Buffer A: 1 L solution of 100 mM potassium dihydrogen phosphate containing 1 mM EDTA (Sigma, V900157-100G) was prepared. Buffer B: 1 L solution of 100 mM dipotassium hydrogen phosphate containing 1 mM EDTA was prepared. Buffer C: 700 mL of buffer B was taken out and titrated with buffer A to pH 7.4. 2. […] 2.2 20 μl (20 mg/mL) of liver microsomes (Corning Lot. NO. 4133007) stock solution was added to 513.4 μl of buffer C on wet ice. 0.75 mg/mL liver microsomal solution was obtained. 2.3 1.5 μl of each of the above-mentioned compound to be tested and ketanserin solution was added to 498.5 μl of liver microsomal solution (0.7 5 mg/mL) respectively on wet ice. 1.5 μM mixed solution of compound to be tested and 1.5 μM mixed solution of ketanserin were obtained. 2.4 At the time points 0, 5, 15, 30, 45, and 60 min, 30 μl of the mixed solution of compound to be tested and 30 μl of the mixed solution of ketanserin were dispensed into the reaction plate on wet ice, respectively. 2.5 5 mg reduced coenzyme II (Roche, 10621706001) was weighed and dissolved in 1 mL of buffer C. 6 mM reduced coenzyme II solution was obtained. The reduced coenzyme II solution was dispensed into the reaction plate. 2.6 Imipramine was dissolved to give a 10 mM solution. 10 μl of imipramine solution was added to 100 mL of blank acetonitrile to generate the internal reference. 2.7 At 0 min, 135 μL of iced acetonitrile (Merck (Lot. 1778229518)) containing the internal reference was added to each well and then 15 μL of buffer C was added. 2.8 The reaction plate was placed into a 37° C. water bath incubator for 5 min. In the reaction plate, 15 μL of reduced coenzyme II solution was added to each well to initiate the reaction, and the timing was started. At the time points of 5, 15, 30, 45, and 60 min, 135 μL of iced acetonitrile containing the internal reference was added to each well to terminate the reaction. 2.9 The reaction plate was sealed with an aluminum film, placed on a vibration mixer and shaken at 500 rpm for 5 min. The plate was then centrifuged in a centrifuge at 3750 rp for 15 min. 2.10 The sample was diluted with pure water in accordance with the ratio of 1:1 and detected by LC/MS. Half-life: 0.693/K (the slope by plotting based on the incubation time and logarithm of the concentration value) Clearance ratio: (0.693/half-life)*(1/protein concentration (0.5 mg/mL))*(proportional factor) Wherein, the K value and the proportional factor were calculated by those skilled in the art according to the methods described in the prior art and contained in the instructions of the liver microsome product.

T1 sequence (Q15858 whole entry): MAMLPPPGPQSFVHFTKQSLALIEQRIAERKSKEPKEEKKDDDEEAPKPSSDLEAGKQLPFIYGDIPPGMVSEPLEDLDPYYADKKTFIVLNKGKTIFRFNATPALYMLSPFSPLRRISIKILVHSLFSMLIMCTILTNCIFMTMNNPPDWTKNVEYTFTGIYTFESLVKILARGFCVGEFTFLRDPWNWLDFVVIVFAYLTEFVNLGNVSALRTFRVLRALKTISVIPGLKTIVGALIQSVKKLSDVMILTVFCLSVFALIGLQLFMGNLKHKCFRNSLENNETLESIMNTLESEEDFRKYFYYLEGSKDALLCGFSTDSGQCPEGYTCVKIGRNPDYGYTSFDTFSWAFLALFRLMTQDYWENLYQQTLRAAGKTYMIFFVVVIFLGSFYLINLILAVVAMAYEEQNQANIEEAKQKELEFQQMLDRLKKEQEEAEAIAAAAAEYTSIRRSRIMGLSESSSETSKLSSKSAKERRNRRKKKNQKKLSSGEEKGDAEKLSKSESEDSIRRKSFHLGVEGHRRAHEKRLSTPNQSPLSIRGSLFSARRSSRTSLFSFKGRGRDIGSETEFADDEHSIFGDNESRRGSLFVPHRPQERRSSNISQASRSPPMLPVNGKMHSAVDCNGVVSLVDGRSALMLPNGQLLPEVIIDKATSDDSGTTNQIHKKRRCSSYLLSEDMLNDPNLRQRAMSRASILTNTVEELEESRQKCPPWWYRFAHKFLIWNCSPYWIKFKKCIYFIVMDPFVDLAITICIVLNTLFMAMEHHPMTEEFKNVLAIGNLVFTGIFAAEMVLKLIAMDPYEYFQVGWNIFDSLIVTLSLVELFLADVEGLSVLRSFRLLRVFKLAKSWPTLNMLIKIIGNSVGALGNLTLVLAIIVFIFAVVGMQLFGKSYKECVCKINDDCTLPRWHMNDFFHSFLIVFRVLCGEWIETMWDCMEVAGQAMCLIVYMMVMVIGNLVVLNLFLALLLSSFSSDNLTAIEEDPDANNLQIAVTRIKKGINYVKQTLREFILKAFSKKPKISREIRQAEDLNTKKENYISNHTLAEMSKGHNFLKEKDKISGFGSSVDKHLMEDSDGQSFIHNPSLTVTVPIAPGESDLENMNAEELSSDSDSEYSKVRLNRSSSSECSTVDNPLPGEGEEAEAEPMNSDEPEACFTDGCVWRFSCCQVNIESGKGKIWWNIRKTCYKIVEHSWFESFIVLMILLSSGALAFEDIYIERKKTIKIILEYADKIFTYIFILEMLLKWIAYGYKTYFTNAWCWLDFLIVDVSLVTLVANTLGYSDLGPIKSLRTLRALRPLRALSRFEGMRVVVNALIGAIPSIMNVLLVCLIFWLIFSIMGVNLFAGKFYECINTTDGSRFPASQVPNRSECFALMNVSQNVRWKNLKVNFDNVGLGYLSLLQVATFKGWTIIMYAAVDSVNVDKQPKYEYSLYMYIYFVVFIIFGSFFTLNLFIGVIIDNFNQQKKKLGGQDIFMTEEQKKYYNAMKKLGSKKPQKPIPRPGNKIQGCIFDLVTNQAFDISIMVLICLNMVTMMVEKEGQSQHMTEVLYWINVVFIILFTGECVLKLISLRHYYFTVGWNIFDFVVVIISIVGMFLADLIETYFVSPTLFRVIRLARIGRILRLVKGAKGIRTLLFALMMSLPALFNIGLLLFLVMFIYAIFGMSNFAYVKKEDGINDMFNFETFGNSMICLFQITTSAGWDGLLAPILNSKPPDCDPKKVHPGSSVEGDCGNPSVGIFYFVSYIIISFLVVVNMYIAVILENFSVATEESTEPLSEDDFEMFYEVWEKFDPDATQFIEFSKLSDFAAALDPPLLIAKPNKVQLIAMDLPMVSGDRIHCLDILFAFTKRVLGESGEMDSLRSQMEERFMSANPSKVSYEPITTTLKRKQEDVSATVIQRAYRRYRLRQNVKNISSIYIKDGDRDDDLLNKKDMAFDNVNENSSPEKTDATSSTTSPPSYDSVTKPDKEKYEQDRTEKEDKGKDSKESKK

Compound | inhibition at 0.1 µM (hNav1.7) [%] | inhibition at 1 µM (hNav1.7) [%] | IC50 (hNav1.7; read-out: Nav1.7(IC50/nM)) [nM] | Clearance [1] [mL/min/kg] | half-life at 1 µM [1] [h] | T1/2(min) [1]
Cc1cc(N2CCN(Cc3cc(F)c(C(=O)NS(=O)(=O)C4CC4)cc3Cl)CC2)ccc1Cl [Compound Z-164] | 89.7 | 102 | 24.6 | 20.12 | 1.44 | 
C[C@@H]1CN(c2ccc(Cl)c(Cl)c2)CCN1Cc1cc(F)c(C(=O)NS(=O)(=O)C2CC2)cc1Cl [Compound Z-172, (R)-5-Chloro-N-(cyclopropylsulfonyl)-4-((4-(3,4-dichlorophenyl)-2-methylpiperazin-1-yl)methyl)-2-fluorobenzamide] | 89.1 | 97.2 |  | 2.20 | 13.1 | 
O=C(NS(=O)(=O)C1CC1)c1cc(Cl)c(CN2CCN(c3ccc(C4CC4)c(Cl)c3)CC2)cc1F [Compound Z-173] | 93.8 | 100 |  | 6.20 | 4.67 | 
Cc1ccc(N2CCN(Cc3cc(F)c(C(=O)NS(=O)(=O)C4CC4)cc3Cl)CC2)cc1Cl [Compound Z-177] | 89.2 | 98 |  | 0.00 |  | ∞
CCc1cc(N2CCN(Cc3cc(F)c(C(=O)NS(=O)(=O)C4CC4)cc3Cl)CC2)ccc1Cl [Compound Z-178] | 89.1 | 98.7 |  | 23.88 | 1.21 | 
CCc1cc(C(=O)NS(=O)(=O)C2CC2)c(F)cc1CN1CCN(c2ccc(OC(F)(F)F)cc2)CC1 [Compound Z-189, N-(cyclopropylsulfonyl)-5-ethyl-2-fluoro-4-((4-(4-(trifluoromethoxy)phenyl)piperazin-1-yl)methyl)benzamide] | 83.8 | 99.2 |  | 2.74 |  | ∞
